Results: ChEMBL document CHEMBL5303573, “Mapping human microbiome drug metabolism by gut bacteria and their genes” (Nature, 2019)

Assay: The drug is tested on Clostridium sp. strain: fecal isolate for biotransformation. The drug concentrations were measured before and after a 12-h incubation by liquid-chromatography-coupled mass spectrometry (LC–MS)
Conditions: 2 µM

SMILES | Bacterial Biotransformation
Cc1ccc(S(=O)(=O)NC(=O)NN2CC3CCCC3C2)cc1 (configuration not stated) [GLICLAZIDE] | Compound NOT metabolized
NC(=O)N1c2ccccc2CC(=O)c2ccccc21 [OXCARBAZEPINE] | Compound NOT metabolized
CCN(CC)C(C)CN1c2ccccc2Sc2ccccc21 (configuration not stated) [ETHOPROPAZINE] | Compound metabolized
CO[C@]12C[C@@H](COC(=O)c3cncc(Br)c3)CN(C)[C@@H]1Cc1cn(C)c3cccc2c13 [NICERGOLINE] | Compound NOT metabolized

Assay: The drug is tested on Providencia rettgeri strain: DSM1131 for biotransformation. The drug concentrations were measured before and after a 12-h incubation by liquid-chromatography-coupled mass spectrometry (LC–MS)
Type: ADME
Design: dose 2 uM, timepoint 0 vs 12 hours
Conditions: 2 µM

SMILES | Bacterial Biotransformation
NC(=O)N1c2ccccc2CC(=O)c2ccccc21 [OXCARBAZEPINE] | Compound metabolized

Assay: The drug is tested on Odoribacter splanchnicus strain: fecal isolate for biotransformation. The drug concentrations were measured before and after a 12-h incubation by liquid-chromatography-coupled mass spectrometry (LC–MS)
Conditions: 2 µM

SMILES | Bacterial Biotransformation
Cc1ccc(S(=O)(=O)NC(=O)NN2CC3CCCC3C2)cc1 (configuration not stated) [GLICLAZIDE] | Compound NOT metabolized
NC(=O)N1c2ccccc2CC(=O)c2ccccc21 [OXCARBAZEPINE] | Compound metabolized
CCN(CC)C(C)CN1c2ccccc2Sc2ccccc21 (configuration not stated) [ETHOPROPAZINE] | Compound metabolized
CO[C@]12C[C@@H](COC(=O)c3cncc(Br)c3)CN(C)[C@@H]1Cc1cn(C)c3cccc2c13 [NICERGOLINE] | Compound NOT metabolized

Conditions: parabacteroides distasonis, 12 h, 2 µM
Description: The drug is tested on Parabacteroides distasonis strain: ATCC8503 for biotransformation. The drug concentrations were measured before and after a 12-h incubation by liquid-chromatography-coupled mass spectrometry (LC–MS)

SMILES | Bacterial Biotransformation
Cc1ccc(S(=O)(=O)NC(=O)NN2CC3CCCC3C2)cc1 (configuration not stated) [GLICLAZIDE] | Compound NOT metabolized
NC(=O)N1c2ccccc2CC(=O)c2ccccc21 [OXCARBAZEPINE] | Compound metabolized
CCN(CC)C(C)CN1c2ccccc2Sc2ccccc21 (configuration not stated) [ETHOPROPAZINE] | Compound metabolized
CO[C@]12C[C@@H](COC(=O)c3cncc(Br)c3)CN(C)[C@@H]1Cc1cn(C)c3cccc2c13 [NICERGOLINE] | Compound NOT metabolized

Conditions: anaerostipes sp., 12 h, 2 µM
Description: The drug is tested on Anaerostipes sp. strain: fecal isolate for biotransformation. The drug concentrations were measured before and after a 12-h incubation by liquid-chromatography-coupled mass spectrometry (LC–MS)

SMILES | Bacterial Biotransformation
Cc1ccc(S(=O)(=O)NC(=O)NN2CC3CCCC3C2)cc1 (configuration not stated) [GLICLAZIDE] | Compound NOT metabolized
NC(=O)N1c2ccccc2CC(=O)c2ccccc21 [OXCARBAZEPINE] | Compound NOT metabolized
CCN(CC)C(C)CN1c2ccccc2Sc2ccccc21 (configuration not stated) [ETHOPROPAZINE] | Compound NOT metabolized
CO[C@]12C[C@@H](COC(=O)c3cncc(Br)c3)CN(C)[C@@H]1Cc1cn(C)c3cccc2c13 [NICERGOLINE] | Compound NOT metabolized

Assay: The drug is tested on Ruminococcus lactaris strain: ATCC29176 for biotransformation. The drug concentrations were measured before and after a 12-h incubation by liquid-chromatography-coupled mass spectrometry (LC–MS)
Conditions: 2 µM

SMILES | Bacterial Biotransformation
Cc1ccc(S(=O)(=O)NC(=O)NN2CC3CCCC3C2)cc1 (configuration not stated) [GLICLAZIDE] | Compound NOT metabolized
NC(=O)N1c2ccccc2CC(=O)c2ccccc21 [OXCARBAZEPINE] | Compound metabolized
CCN(CC)C(C)CN1c2ccccc2Sc2ccccc21 (configuration not stated) [ETHOPROPAZINE] | Compound NOT metabolized
CO[C@]12C[C@@H](COC(=O)c3cncc(Br)c3)CN(C)[C@@H]1Cc1cn(C)c3cccc2c13 [NICERGOLINE] | Compound NOT metabolized

Assay: The drug is tested on Enterococcus faecalis strain: V583 for biotransformation. The drug concentrations were measured before and after a 12-h incubation by liquid-chromatography-coupled mass spectrometry (LC–MS)
Conditions: 2 µM

SMILES | Bacterial Biotransformation
Cc1ccc(S(=O)(=O)NC(=O)NN2CC3CCCC3C2)cc1 (configuration not stated) [GLICLAZIDE] | Compound NOT metabolized
NC(=O)N1c2ccccc2CC(=O)c2ccccc21 [OXCARBAZEPINE] | Compound NOT metabolized
CCN(CC)C(C)CN1c2ccccc2Sc2ccccc21 (configuration not stated) [ETHOPROPAZINE] | Compound NOT metabolized
CO[C@]12C[C@@H](COC(=O)c3cncc(Br)c3)CN(C)[C@@H]1Cc1cn(C)c3cccc2c13 [NICERGOLINE] | Compound NOT metabolized

Assay: The drug is tested on Bacteroides caccae strain: ATCC43185 for biotransformation. The drug concentrations were measured before and after a 12-h incubation by liquid-chromatography-coupled mass spectrometry (LC–MS)
Conditions: 2 µM

SMILES | Bacterial Biotransformation
Cc1ccc(S(=O)(=O)NC(=O)NN2CC3CCCC3C2)cc1 (configuration not stated) [GLICLAZIDE] | Compound NOT metabolized
NC(=O)N1c2ccccc2CC(=O)c2ccccc21 [OXCARBAZEPINE] | Compound NOT metabolized
CCN(CC)C(C)CN1c2ccccc2Sc2ccccc21 (configuration not stated) [ETHOPROPAZINE] | Compound metabolized
CO[C@]12C[C@@H](COC(=O)c3cncc(Br)c3)CN(C)[C@@H]1Cc1cn(C)c3cccc2c13 [NICERGOLINE] | Compound NOT metabolized

Assay: The drug is tested on Blautia hansenii strain: DSM20583 for biotransformation. The drug concentrations were measured before and after a 12-h incubation by liquid-chromatography-coupled mass spectrometry (LC–MS)
Conditions: 2 µM

SMILES | Bacterial Biotransformation
Cc1ccc(S(=O)(=O)NC(=O)NN2CC3CCCC3C2)cc1 (configuration not stated) [GLICLAZIDE] | Compound NOT metabolized
NC(=O)N1c2ccccc2CC(=O)c2ccccc21 [OXCARBAZEPINE] | Compound NOT metabolized
CCN(CC)C(C)CN1c2ccccc2Sc2ccccc21 (configuration not stated) [ETHOPROPAZINE] | Compound metabolized
CO[C@]12C[C@@H](COC(=O)c3cncc(Br)c3)CN(C)[C@@H]1Cc1cn(C)c3cccc2c13 [NICERGOLINE] | Compound NOT metabolized

Assay: The drug is tested on Escherichia coli strain: BW25113 for biotransformation. The drug concentrations were measured before and after a 12-h incubation by liquid-chromatography-coupled mass spectrometry (LC–MS)
Conditions: 2 µM

SMILES | Bacterial Biotransformation
Cc1ccc(S(=O)(=O)NC(=O)NN2CC3CCCC3C2)cc1 (configuration not stated) [GLICLAZIDE] | Compound NOT metabolized
NC(=O)N1c2ccccc2CC(=O)c2ccccc21 [OXCARBAZEPINE] | Compound metabolized
CCN(CC)C(C)CN1c2ccccc2Sc2ccccc21 (configuration not stated) [ETHOPROPAZINE] | Compound metabolized
CO[C@]12C[C@@H](COC(=O)c3cncc(Br)c3)CN(C)[C@@H]1Cc1cn(C)c3cccc2c13 [NICERGOLINE] | Compound NOT metabolized

Conditions: segatella copri, 12 h, 2 µM
Description: The drug is tested on Prevotella copri strain: DSM18205 for biotransformation. The drug concentrations were measured before and after a 12-h incubation by liquid-chromatography-coupled mass spectrometry (LC–MS)

SMILES | Bacterial Biotransformation
Cc1ccc(S(=O)(=O)NC(=O)NN2CC3CCCC3C2)cc1 (configuration not stated) [GLICLAZIDE] | Compound NOT metabolized
NC(=O)N1c2ccccc2CC(=O)c2ccccc21 [OXCARBAZEPINE] | Compound NOT metabolized
CO[C@]12C[C@@H](COC(=O)c3cncc(Br)c3)CN(C)[C@@H]1Cc1cn(C)c3cccc2c13 [NICERGOLINE] | Compound NOT metabolized

Conditions: parabacteroides johnsonii, 12 h, 2 µM
Description: The drug is tested on Parabacteroides johnsonii strain: DSM18315 for biotransformation. The drug concentrations were measured before and after a 12-h incubation by liquid-chromatography-coupled mass spectrometry (LC–MS)

SMILES | Bacterial Biotransformation
Cc1ccc(S(=O)(=O)NC(=O)NN2CC3CCCC3C2)cc1 (configuration not stated) [GLICLAZIDE] | Compound NOT metabolized
CCN(CC)C(C)CN1c2ccccc2Sc2ccccc21 (configuration not stated) [ETHOPROPAZINE] | Compound metabolized
CO[C@]12C[C@@H](COC(=O)c3cncc(Br)c3)CN(C)[C@@H]1Cc1cn(C)c3cccc2c13 [NICERGOLINE] | Compound NOT metabolized

Assay: The drug is tested on Bifidobacterium breve strain: DSM20213 for biotransformation. The drug concentrations were measured before and after a 12-h incubation by liquid-chromatography-coupled mass spectrometry (LC–MS)
Conditions: 2 µM

SMILES | Bacterial Biotransformation
Cc1ccc(S(=O)(=O)NC(=O)NN2CC3CCCC3C2)cc1 (configuration not stated) [GLICLAZIDE] | Compound NOT metabolized
NC(=O)N1c2ccccc2CC(=O)c2ccccc21 [OXCARBAZEPINE] | Compound NOT metabolized
CCN(CC)C(C)CN1c2ccccc2Sc2ccccc21 (configuration not stated) [ETHOPROPAZINE] | Compound NOT metabolized
CO[C@]12C[C@@H](COC(=O)c3cncc(Br)c3)CN(C)[C@@H]1Cc1cn(C)c3cccc2c13 [NICERGOLINE] | Compound NOT metabolized

Assay: The drug is tested on Clostridium sporogenes strain: ATCC15579 for biotransformation. The drug concentrations were measured before and after a 12-h incubation by liquid-chromatography-coupled mass spectrometry (LC–MS)
Conditions: 2 µM

SMILES | Bacterial Biotransformation
Cc1ccc(S(=O)(=O)NC(=O)NN2CC3CCCC3C2)cc1 (configuration not stated) [GLICLAZIDE] | Compound NOT metabolized
NC(=O)N1c2ccccc2CC(=O)c2ccccc21 [OXCARBAZEPINE] | Compound metabolized
CCN(CC)C(C)CN1c2ccccc2Sc2ccccc21 (configuration not stated) [ETHOPROPAZINE] | Compound NOT metabolized
CO[C@]12C[C@@H](COC(=O)c3cncc(Br)c3)CN(C)[C@@H]1Cc1cn(C)c3cccc2c13 [NICERGOLINE] | Compound NOT metabolized

Conditions: bifidobacterium adolescentis, 12 h, 2 µM
Description: The drug is tested on Bifidobacterium adolescentis strain: ATCC 15703 for biotransformation. The drug concentrations were measured before and after a 12-h incubation by liquid-chromatography-coupled mass spectrometry (LC–MS)

SMILES | Bacterial Biotransformation
Cc1ccc(S(=O)(=O)NC(=O)NN2CC3CCCC3C2)cc1 (configuration not stated) [GLICLAZIDE] | Compound NOT metabolized
NC(=O)N1c2ccccc2CC(=O)c2ccccc21 [OXCARBAZEPINE] | Compound metabolized
CCN(CC)C(C)CN1c2ccccc2Sc2ccccc21 (configuration not stated) [ETHOPROPAZINE] | Compound NOT metabolized
CO[C@]12C[C@@H](COC(=O)c3cncc(Br)c3)CN(C)[C@@H]1Cc1cn(C)c3cccc2c13 [NICERGOLINE] | Compound NOT metabolized

Assay: The drug is tested on Bacteroides cellulosilyticus strain: DSM14838 for biotransformation. The drug concentrations were measured before and after a 12-h incubation by liquid-chromatography-coupled mass spectrometry (LC–MS)
Conditions: 2 µM

SMILES | Bacterial Biotransformation
Cc1ccc(S(=O)(=O)NC(=O)NN2CC3CCCC3C2)cc1 (configuration not stated) [GLICLAZIDE] | Compound NOT metabolized
NC(=O)N1c2ccccc2CC(=O)c2ccccc21 [OXCARBAZEPINE] | Compound NOT metabolized
CCN(CC)C(C)CN1c2ccccc2Sc2ccccc21 (configuration not stated) [ETHOPROPAZINE] | Compound NOT metabolized
CO[C@]12C[C@@H](COC(=O)c3cncc(Br)c3)CN(C)[C@@H]1Cc1cn(C)c3cccc2c13 [NICERGOLINE] | Compound metabolized

Conditions: bacteroides fragilis, 12 h, 2 µM
Description: The drug is tested on Bacteroides fragilis strain: 3397 (T10) for biotransformation. The drug concentrations were measured before and after a 12-h incubation by liquid-chromatography-coupled mass spectrometry (LC–MS)

SMILES | Bacterial Biotransformation
Cc1ccc(S(=O)(=O)NC(=O)NN2CC3CCCC3C2)cc1 (configuration not stated) [GLICLAZIDE] | Compound metabolized
CCN(CC)C(C)CN1c2ccccc2Sc2ccccc21 (configuration not stated) [ETHOPROPAZINE] | Compound NOT metabolized
CO[C@]12C[C@@H](COC(=O)c3cncc(Br)c3)CN(C)[C@@H]1Cc1cn(C)c3cccc2c13 [NICERGOLINE] | Compound NOT metabolized

Assay: The drug is tested on Clostridium scindens strain: ATCC35704 for biotransformation. The drug concentrations were measured before and after a 12-h incubation by liquid-chromatography-coupled mass spectrometry (LC–MS)
Conditions: 2 µM

SMILES | Bacterial Biotransformation
Cc1ccc(S(=O)(=O)NC(=O)NN2CC3CCCC3C2)cc1 (configuration not stated) [GLICLAZIDE] | Compound NOT metabolized
NC(=O)N1c2ccccc2CC(=O)c2ccccc21 [OXCARBAZEPINE] | Compound metabolized
CCN(CC)C(C)CN1c2ccccc2Sc2ccccc21 (configuration not stated) [ETHOPROPAZINE] | Compound NOT metabolized
CO[C@]12C[C@@H](COC(=O)c3cncc(Br)c3)CN(C)[C@@H]1Cc1cn(C)c3cccc2c13 [NICERGOLINE] | Compound NOT metabolized

Assay: The drug is tested on Bacteroides vulgatus strain: ATCC8482 for biotransformation. The drug concentrations were measured before and after a 12-h incubation by liquid-chromatography-coupled mass spectrometry (LC–MS)
Conditions: phocaeicola vulgatus, 2 µM

SMILES | Bacterial Biotransformation
Cc1ccc(S(=O)(=O)NC(=O)NN2CC3CCCC3C2)cc1 (configuration not stated) [GLICLAZIDE] | Compound metabolized
CCN(CC)C(C)CN1c2ccccc2Sc2ccccc21 (configuration not stated) [ETHOPROPAZINE] | Compound metabolized
CO[C@]12C[C@@H](COC(=O)c3cncc(Br)c3)CN(C)[C@@H]1Cc1cn(C)c3cccc2c13 [NICERGOLINE] | Compound metabolized

Conditions: bacteroides thetaiotaomicron, 12 h, 2 µM
Description: The drug is tested on Bacteroides thetaiotaomicron strain: VPI-5482 for biotransformation. The drug concentrations were measured before and after a 12-h incubation by liquid-chromatography-coupled mass spectrometry (LC–MS)

SMILES | Bacterial Biotransformation
Cc1ccc(S(=O)(=O)NC(=O)NN2CC3CCCC3C2)cc1 (configuration not stated) [GLICLAZIDE] | Compound NOT metabolized
CCN(CC)C(C)CN1c2ccccc2Sc2ccccc21 (configuration not stated) [ETHOPROPAZINE] | Compound metabolized
CO[C@]12C[C@@H](COC(=O)c3cncc(Br)c3)CN(C)[C@@H]1Cc1cn(C)c3cccc2c13 [NICERGOLINE] | Compound NOT metabolized
